{"source": "ChEMBL document CHEMBL5113481", "about": "“Design, synthesis and biological evaluation of quinoline-2-carbonitrile-based hydroxamic acids as dual tubulin polymerization and histone deacetylases inhibitors” (Eur J Med Chem, 2022)", "key": {"[1]": {"experiment": "Antitumor activity against mouse MCA-205 cells allografted in female C57BL/6 mouse assessed as decrease in tumor growth at 0.25 to 0.5 mg/kg, IT(Intratumoral)", "format": "functional", "design": "scale not given: the % may be the effect or the level left", "details": "dose lower […], dose upper 0.5 mg/kg"}, "[2]": {"experiment": "Solubility of compound in water", "format": "physicochemical"}, "[3]": {"experiment": "Toxicity in C57BL/6 mouse allografted with mouse MCA-205 cells assessed as effect on body weight at 0.1 to 0.5 mg/kg, IT(Intratumoral)", "format": "organism-based", "details": "in vivo, other, dose 0.1-0.5 mg/kg"}, "[4]": {"molecular_target": "Tubulin (Homo sapiens) (UniProt P68371+Q9H4B7+P0DPH7+P68366+Q13509+Q71U36+P04350+Q3ZCM7+P07437+P68363+Q9BQE3+Q6PEY2+Q13885+Q9BVA1+Q9BUF5)", "experiment": "Inhibition of tubulin polymerization in human MDA-MB-231 cells assessed as microtubule network polymerization at 250 nM after 30 mins by immunofluorescence analysis", "format": "cell-based"}, "[5]": {"test_system": "HT-29", "experiment": "Induction of DNA damage in human HT-29 cells at 0.5 to 10 nM assessed as increase in gamma-H2AX level and measured after 24 hrs by Western blot analysis", "format": "functional, cell-based", "details": "dose 0.5-10 nM"}, "[6]": {"experiment": "Antitumor activity against mouse MCA-205 cells allografted in female C57BL/6 mouse assessed as tumor regression at […], IT(Intratumoral)", "format": "functional"}, "[7]": {"test_system": "SK-OV-3", "experiment": "Antiproliferative activity against human SK-OV-3 cells after 72 hrs by CellTiter Glo assay", "format": "functional, cell-based", "details": "SK-OV-3, 72 h"}, "[8]": {"experiment": "Antiproliferative activity against mouse MCA-205 cells after 72 hrs by CellTiter Glo assay", "format": "functional, cell-based", "details": "MCA-205, 72 h"}, "[9]": {"experiment": "Metabolic stability in human liver microsomes assessed as intrinsic clearance per mg protein measured upto 6 hrs in presence of NADPH generating system by HPLC-MS/MS analysis", "format": "ADME, Microsome", "details": "read-out: CLH"}, "[10]": {"molecular_target": "T1, Protein deacetylase HDAC6 (Homo sapiens, UniProt Q9UBN7)", "T1 sequence (Q9UBN7 whole entry)": "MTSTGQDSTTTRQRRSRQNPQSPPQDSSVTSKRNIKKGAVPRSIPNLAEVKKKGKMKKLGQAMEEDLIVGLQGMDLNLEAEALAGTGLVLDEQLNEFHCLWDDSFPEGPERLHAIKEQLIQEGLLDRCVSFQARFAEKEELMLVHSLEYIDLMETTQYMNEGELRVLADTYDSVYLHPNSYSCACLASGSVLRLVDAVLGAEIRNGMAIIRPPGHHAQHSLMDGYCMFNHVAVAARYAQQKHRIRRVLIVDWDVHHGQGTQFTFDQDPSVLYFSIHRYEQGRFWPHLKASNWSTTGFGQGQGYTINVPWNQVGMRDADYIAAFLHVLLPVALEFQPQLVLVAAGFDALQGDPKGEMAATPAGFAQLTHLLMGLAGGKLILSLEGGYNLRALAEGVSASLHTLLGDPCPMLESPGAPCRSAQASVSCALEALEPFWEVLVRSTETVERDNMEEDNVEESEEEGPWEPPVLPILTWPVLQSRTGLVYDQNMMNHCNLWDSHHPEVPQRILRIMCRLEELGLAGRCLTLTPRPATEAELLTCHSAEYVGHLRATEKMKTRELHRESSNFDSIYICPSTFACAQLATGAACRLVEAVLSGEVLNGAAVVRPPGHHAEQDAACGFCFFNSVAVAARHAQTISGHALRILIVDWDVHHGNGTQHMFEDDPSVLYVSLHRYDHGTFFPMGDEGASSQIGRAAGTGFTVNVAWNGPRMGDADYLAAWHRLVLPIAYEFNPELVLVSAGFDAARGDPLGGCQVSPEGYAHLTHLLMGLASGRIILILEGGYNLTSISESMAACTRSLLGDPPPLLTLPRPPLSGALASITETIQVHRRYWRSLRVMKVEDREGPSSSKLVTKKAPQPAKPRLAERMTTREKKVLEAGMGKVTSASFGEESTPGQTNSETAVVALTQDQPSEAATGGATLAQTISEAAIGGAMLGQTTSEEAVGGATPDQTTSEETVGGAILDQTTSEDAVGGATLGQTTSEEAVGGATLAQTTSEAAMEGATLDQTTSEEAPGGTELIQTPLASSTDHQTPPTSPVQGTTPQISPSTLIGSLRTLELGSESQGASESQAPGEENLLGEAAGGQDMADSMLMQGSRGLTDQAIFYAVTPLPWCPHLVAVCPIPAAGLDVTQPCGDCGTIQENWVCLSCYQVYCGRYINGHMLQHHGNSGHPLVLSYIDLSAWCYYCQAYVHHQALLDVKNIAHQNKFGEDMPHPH", "experiment": "Inhibition of HDAC6 (unknown origin) measured by fluorometry assay"}, "[11]": {"test_system": "K562", "experiment": "Antiproliferative activity against imatinib-resistant human K562 cells over expressing MDR1 after 72 hrs by CellTiter Glo assay", "format": "functional, cell-based", "details": "K562, 72 h"}, "[12]": {"molecular_target": "T2, Histone deacetylase 11 (Homo sapiens, UniProt Q96DB2)", "T2 sequence (Q96DB2 whole entry)": "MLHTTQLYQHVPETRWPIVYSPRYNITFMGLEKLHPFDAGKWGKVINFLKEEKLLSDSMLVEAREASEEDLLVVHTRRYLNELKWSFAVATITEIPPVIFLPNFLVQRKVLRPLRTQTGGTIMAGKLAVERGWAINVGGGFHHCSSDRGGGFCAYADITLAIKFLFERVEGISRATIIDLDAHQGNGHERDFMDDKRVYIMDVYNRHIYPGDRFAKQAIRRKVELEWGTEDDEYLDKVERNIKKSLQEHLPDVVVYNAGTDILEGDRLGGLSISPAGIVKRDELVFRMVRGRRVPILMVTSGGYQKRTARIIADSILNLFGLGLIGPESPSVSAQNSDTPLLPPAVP", "experiment": "Inhibition of HDAC11 (unknown origin) measured by fluorometry assay"}}, "note": "pIC50: −log10 of the molar value. The source made the active and inactive calls. No cut-off for these calls is given here.", "data": [{"smiles": "COc1ccc(N(C)c2cc(C#N)nc3ccccc23)cc1/C=C/C(=O)NO", "values": [{"measurement": "Activity", "setting": "[1]", "value": 70, "unit": "%"}, {"measurement": "solubility", "setting": "[2]", "value": 68.7, "unit": "µg/mL"}, {"measurement": "Activity", "setting": "[3]", "value": "Non-Toxic"}, {"measurement": "inhibition", "setting": "[4]", "value": "Active"}, {"measurement": "Activity", "setting": "[5]", "value": "Active"}, {"measurement": "Activity", "setting": "[6]", "value": 40, "unit": "%"}, {"measurement": "pIC50", "setting": "[7]", "value": 9.22}, {"measurement": "pIC50", "setting": "[8]", "value": 8.56}, {"measurement": "microsomal CLint", "setting": "[9]", "value": 0.36, "unit": "µL/min/mg"}, {"measurement": "pIC50", "setting": "[10]", "value": 6.00}, {"measurement": "pIC50", "setting": "[11]", "value": 9.25}, {"measurement": "pIC50", "setting": "[12]", "value": 5.72}]}]}
